Reference: patent publication US20090069320A1, “Substituted 4-Amino-Quinazoline Compounds with Metabotropic Glutamate Receptor Regulating Activity and Uses Thereof” (Gruenenthal GmbH, priority 2006, published 2009)
Where a name gives a salt, the structure may show the parent alone.

Target: T1, mGluR5 receptor (Sus scrofa, UniProt I3LUI7)
T1 construct: 450 μg of protein from brain homogenate with 5 nM ^3[H]-MPEP; from tissue; host or cells: pig brain halves without medulla, cerebellum and pons
Assay: [3H]-MPEP mGluR5 receptor binding assay (pig brain homogenate)
Conditions: 5 nM [3H]-MPEP; for IC50: read-out: IC50 mGluR5 Receptor (pig) [^3H]-MPEP Bond; for inhibition at 10 µM / % Inhibition of mGluR5 Receptor (pig) [^3H]-MPEP Bond at 10 μM: 10 μM compound; for inhibition at 10 µM: read-out: % Inhibition of mGluR5 Receptor (pig) [^3H]-MPEP Bond at 10 μM
Summary of the method: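 Radioligand displacement of 5 nM [3H]-MPEP from pig brain homogenate (450 μg protein; medulla, cerebellum and pons removed) in 20 mM Hepes pH 8.0. Compounds were tested at 10 μM, incubated 60 min at room temperature, then filtered and counted by scintillation. Non-specific binding was defined with 10 μM MPEP.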

T1 sequence (I3LUI7 19-1212): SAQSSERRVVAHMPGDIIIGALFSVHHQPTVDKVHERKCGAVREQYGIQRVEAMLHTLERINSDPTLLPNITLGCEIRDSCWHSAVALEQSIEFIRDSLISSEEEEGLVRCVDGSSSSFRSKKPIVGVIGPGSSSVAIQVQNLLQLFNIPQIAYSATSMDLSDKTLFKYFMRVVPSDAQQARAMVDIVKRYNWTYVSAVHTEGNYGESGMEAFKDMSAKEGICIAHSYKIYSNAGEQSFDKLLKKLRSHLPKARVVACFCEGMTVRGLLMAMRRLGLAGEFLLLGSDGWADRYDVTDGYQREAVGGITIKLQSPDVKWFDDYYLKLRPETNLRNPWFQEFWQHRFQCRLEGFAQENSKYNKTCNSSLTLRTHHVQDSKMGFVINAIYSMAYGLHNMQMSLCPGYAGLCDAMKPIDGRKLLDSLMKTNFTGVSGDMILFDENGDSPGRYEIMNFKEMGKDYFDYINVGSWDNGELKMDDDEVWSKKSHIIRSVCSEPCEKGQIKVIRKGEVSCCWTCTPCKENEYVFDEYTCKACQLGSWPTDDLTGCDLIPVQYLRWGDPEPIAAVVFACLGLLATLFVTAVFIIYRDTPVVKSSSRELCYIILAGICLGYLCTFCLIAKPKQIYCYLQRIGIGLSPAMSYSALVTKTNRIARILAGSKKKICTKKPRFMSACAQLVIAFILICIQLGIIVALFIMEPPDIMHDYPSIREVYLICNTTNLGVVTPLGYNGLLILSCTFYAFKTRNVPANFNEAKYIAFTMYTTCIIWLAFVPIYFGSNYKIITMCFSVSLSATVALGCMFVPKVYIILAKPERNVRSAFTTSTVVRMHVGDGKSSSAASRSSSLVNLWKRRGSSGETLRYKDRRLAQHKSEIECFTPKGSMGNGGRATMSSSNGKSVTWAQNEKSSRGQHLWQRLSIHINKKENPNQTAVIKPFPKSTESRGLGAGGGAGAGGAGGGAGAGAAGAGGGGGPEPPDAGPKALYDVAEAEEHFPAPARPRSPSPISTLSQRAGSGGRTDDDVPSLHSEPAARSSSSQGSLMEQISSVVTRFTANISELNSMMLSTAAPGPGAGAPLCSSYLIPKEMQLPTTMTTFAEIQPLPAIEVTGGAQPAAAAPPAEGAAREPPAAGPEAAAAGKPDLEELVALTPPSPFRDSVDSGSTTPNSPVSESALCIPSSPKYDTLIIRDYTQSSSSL

Compound	inhibition at 10 µM [%]	other results
O=S(=O)(CC(F)(F)F)N(Cc1cccc(-c2ccc3ncnc(NC4CC4)c3c2)c1)C1CC1 [Example 225, N-cyclopropyl-N-(3-(4-(cyclopropylamino)quinazolin-6-yl)benzyl)-2,2,2-trifluoroethane sulfonamide]		IC50: 1.48 µM
CCN(CC)c1ncnc2ccc(-c3cccc(CN(C)C(=O)C=Cc4ccccc4)c3)cc12 [Example 62, N-[3-(4-diethylamino-quinazolin-6-yl)-benzyl]-N-methyl-3-phenyl-acrylamide]	43	
Cc1nc(NC2CC2)c2cc(-c3ccc(F)c(CN(C(=O)c4ccccn4)C4CC4)c3)ccc2n1 [Example 604, N-cyclopropyl-N-(5-(4-(cyclopropylamino)-2-methylquinazolin-6-yl)-2-fluorobenzyl)picolinamide]	41	
O=C(CCc1ccccc1)N(Cc1cc(-c2ccc3ncnc(NC4CC4)c3c2)ccn1)C1CC1 [Example 847, N-cyclopropyl-N-((4-(4-(cyclopropylamino)quinazolin-6-yl)pyridin-2-yl)methyl)-3-phenylpropanamide]	43	
O=S(=O)(c1cccc(C(F)(F)F)c1)N(Cc1cccc(-c2cc(F)c3ncnc(NC4CC4)c3c2)c1)C1CC1 [Example 686, N-cyclopropyl-N-(3-(4-(cyclopropylamino)-8-fluoroquinazolin-6-yl)benzyl)-3-(trifluoromethyl)benzole sulfonamide]		% Inhibition of mGluR5 Receptor (pig) [^3H]-MPEP Bond at 10 μM: 68%
O=S(=O)(c1ccc(Cl)cc1Cl)N(Cc1cccc(-c2cc(F)c3ncnc(NC4CC4)c3c2)c1)C1CC1 [Example 782, 2,4-dichloro-N-cyclopropyl-N-(3-(4-(cyclopropylamino)-8-fluoroquinazolin-6-yl)benzyl)benzole sulfonamide]		% Inhibition of mGluR5 Receptor (pig) [^3H]-MPEP Bond at 10 μM: 50%
CCCC(=O)N(Cc1ccccc1)Cc1cccc(-c2ccc3ncnc(NC(C)C)c3c2)c1 [Example 148, N-benzyl-N-[3-(4-isopropylamino-quinazolin-6-yl)-benzyl]-butyramide]	40	
COc1ccc(S(=O)(=O)N(Cc2cc(-c3ccc4ncnc(NC5CC5)c4c3)ccc2Cl)C2CC2)cc1 [Example 786, N-(2-chloro-5-(4-(cyclopropylamino)quinazolin-6-yl)benzyl)-N-cyclopropyl-4-methoxybenzole sulfonamide]		% Inhibition of mGluR5 Receptor (pig) [^3H]-MPEP Bond at 10 μM: 95%
Cc1nc(C(=O)N(Cc2cc(-c3ccc4ncnc(NC5CC5)c4c3)ccc2Cl)C2CC2)cs1 [Example 769, N-(2-chloro-5-(4-(cyclopropylamino)quinazolin-6-yl)benzyl)-N-cyclopropyl-2-methylthiazole-4-carboxamide]	83	
Cc1nc(NC2CC2)c2cc(-c3ccc(F)c(CN(C(=O)c4cccc(F)c4)C4CC4)c3)ccc2n1 [Example 566, N-cyclopropyl-N-(5-(4-(cyclopropylamino)-2-methylquinazolin-6-yl)-2-fluorobenzyl)-3-fluorobenzamide]	61	
CS(=O)(=O)N(Cc1cccc(-c2cc(F)c3ncnc(NC4CC4)c3c2)c1)C1CC1 [Example 678, N-cyclopropyl-N-(3-(4-(cyclopropylamino)-8-fluoroquinazolin-6-yl)benzyl)methane sulfonamide]		IC50: 0.22 µM
COc1ccc(-c2ccc3ncnc(NC4CC4)c3c2)cc1CNC1CC1 [Example 298, N-cyclopropyl-6-(3-((cyclopropylamino)methyl)-4-methoxyphenyl)quinazoline-4-amine]		IC50: 10.8 µM
c1cc(Cn2cccc2)cc(-c2ccc3ncnc(NC4CC4)c3c2)c1 [Example 876, 6-(3-((1H-pyrrol-1-yl)methyl)phenyl)-N-cyclopropylquinazoline-4-amine]	47	
CC(C)(C)Nc1ncnc2ccc(-c3ccc(F)c(CN(C4CC4)S(=O)(=O)Cc4ccccc4)c3)cc12 [Example 833, N-(5-(4-(tert-butylamino)quinazolin-6-yl)-2-fluorobenzyl)-N-cyclopropyl-1-phenyl methane sulfonamide]		% Inhibition of mGluR5 Receptor (pig) [^3H]-MPEP Bond at 10 μM: 43%
CC(C)NC(=O)N(Cc1cccc(-c2ccc3ncnc(NC4CC4)c3c2)c1)C1CC1 [Example 247, 1-cyclopropyl-1-[3-(4-cyclopropylamino-quinazolin-6-yl)-benzyl]-3-isopropyl-urea]		IC50: 7.34 µM
CCN(CC)c1ncnc2ccc(-c3cccc(CN(C)C(=O)c4ccc(C)cc4)c3)cc12 [Example 75, N-[3-(4-diethylamino-quinazolin-6-yl)-benzyl]-4,N-dimethyl-benzamide]	32	
c1cc(CN2CCc3ccccc32)cc(-c2ccc3ncnc(NC4CC4)c3c2)c1 [Example 292, N-cyclopropyl-6-(3-(indolin-1-ylmethyl)phenyl)quinazoline-4-amine]	95	
O=C1CCC(=O)N1Cc1ccc(F)c(-c2ccc3ncnc(NC4CC4)c3c2)c1 [Example 895, 1-(3-(4-(cyclopropylamino)quinazolin-6-yl)-4-fluorobenzyl)pyrrolidine-2,5-dione]	72	
CN(c1ncnc2ccc(-c3ccc(F)c(CN(C(=O)c4cccs4)C4CC4)c3)cc12)C1CC1 [Example 427, N-cyclopropyl-N-(5-(4-(cyclopropyl(methyl)amino)quinazolin-6-yl)-2-fluorobenzyl)thiophene-2-carboxamide]	95	
O=C(c1cccnc1)N(Cc1cccc(-c2ccc3ncnc(NCCc4ccccc4)c3c2)c1)C1CC1 [Example 385, N-cyclopropyl-N-(3-(4-(phenethylamino)quinazolin-6-yl)benzyl)nicotinamide]	35	
Cc1cc2ncnc(NC3CC3)c2cc1-c1cccc(CN(C(=O)CCc2ccccc2)C2CC2)c1 [Example 669, N-cyclopropyl-N-(3-(4-(cyclopropylamino)-7-methylquinazolin-6-yl)benzyl)-3-phenylpropanamide]	77	
COCCNc1ncnc2ccc(-c3cccc(CN4C(=O)CCC4=O)c3)cc12 [Example 867, 1-(3-(4-(2-methoxyethylamino)quinazolin-6-yl)benzyl)pyrrolidine-2,5-dione hydrochloride]	67	
CN1CCN(Cc2cccc(-c3ccc4ncnc(NC5CC5)c4c3)c2)C1=O [Example 877, 1-(3-(4-(cyclopropylamino)quinazolin-6-yl)benzyl)-3-methylimidazolidin-2-one]		IC50: 9.57 µM
CCCN(Cc1cccc(-c2ccc3ncnc(Nc4ccccc4)c3c2)c1)C(=O)c1cnccn1 [Example 104, pyrazine-2-carboxylic acid [3-(4-phenylamino-quinazolin-6-yl)-benzyl]-propyl-amide]	48	
O=C(c1cc(Cl)cc(Cl)c1)N(Cc1cc(-c2ccc3ncnc(NC4CC4)c3c2)ccc1Cl)C1CC1 [Example 747, 3,5-dichloro-N-(2-chloro-5-(4-(cyclopropylamino)quinazolin-6-yl)benzyl)-N-cyclopropylbenzamide]	52	
O=C1CCC(=O)N1Cc1cccc(-c2cc(Cl)c3ncnc(NC4CC4)c3c2)c1 [Example 881, 1-(3-(8-chloro-4-(cyclopropylamino)quinazolin-6-yl)benzyl)pyrrolidine-2,5-dione]		IC50: 0.02 µM
Cc1cc2ncnc(NC3CC3)c2cc1-c1cccc(CN(C(=O)c2ccccc2C(F)(F)F)C2CC2)c1 [Example 684, N-cyclopropyl-N-(3-(4-(cyclopropylamino)-7-methylquinazolin-6-yl)benzyl)-2-(trifluoromethyl)benzamide]	96	

Now from value to molecule, other results behind:

inhibition at 10 µM [%]	Compound	other results
89	O=C(c1ccc(Cl)nc1)N(Cc1cccc(-c2ccc3ncnc(NC4CC4)c3c2)c1)C1CC1 [Example 179, 6-chloro-N-cyclopropyl-N-[3-(4-cyclopropylamino-quinazolin-6-yl)-benzyl]-nicotinamide]	
102	O=C(c1ccccc1)N(Cc1cccc(-c2cc(F)c3ncnc(NC4CC4)c3c2)c1)C1CC1 [Example 693, N-cyclopropyl-N-(3-(4-(cyclopropylamino)-8-fluoroquinazolin-6-yl)benzyl)benzamide]	
80	O=S(=O)(Cc1ccccc1)N(Cc1cc(-c2ccc3ncnc(NC4CC4)c3c2)ccc1Cl)C1CC1 [Example 771, N-(2-chloro-5-(4-(cyclopropylamino)quinazolin-6-yl)benzyl)-N-cyclopropyl-1-phenylmethane sulfonamide]	
92	CC(C)S(=O)(=O)N(Cc1cc(-c2ccc3ncnc(NC4CC4)c3c2)ccc1F)C1CC1 [Example 429, N-cyclopropyl-N-(5-(4-(cyclopropylamino)quinazolin-6-yl)-2-fluorobenzyl)propane-2-sulfonamide]	
94	Cc1nc(C(=O)N(Cc2cc(-c3ccc4ncnc(NC5CC5)c4c3)ccc2F)C2CC2)cs1 [Example 605, N-cyclopropyl-N-(5-(4-(cyclopropylamino)quinazolin-6-yl)-2-fluorobenzyl)-2-methylthiazole-4-carboxamide]	
92	O=S(=O)(Cc1ccccc1)N(Cc1cc(-c2ccc3ncnc(NC4CC4)c3c2)ccn1)C1CC1 [Example 805, N-cyclopropyl-N-((4-(4-(cyclopropylamino)quinazolin-6-yl)pyridin-2-yl)methyl)-1-phenylmethane sulfonamide]	
30	CS(=O)(=O)N(Cc1cc(-c2ccc3ncnc(NC4CC4)c3c2)ccc1F)C1CC1 [Example 251, N-cyclopropyl-N-(5-(4-(cyclopropylamino)quinazolin-6-yl)-2-fluorobenzyl)methane sulfonamide]	
83	Cc1nc(C(=O)N(Cc2cccc(-c3cc4c(NC5CC5)ncnc4cc3C)c2)C2CC2)cs1 [Example 759, N-cyclopropyl-N-(3-(4-(cyclopropylamino)-7-methylquinazolin-6-yl)benzyl)-2-methylthiazole-4-carboxamide]	
